ChEMBL document CHEMBL4715711, “Development of cyanopyridine-triazine hybrids as lead multitarget anti-Alzheimer agents” (Bioorg Med Chem, 2016)
The source made the active and inactive calls. No cut-off for these calls is given here.

What was measured:
[1] = molecular target: Acetylcholinesterase (Electrophorus electricus, UniProt O42275); experiment: Inhibition of electric eel AchE using acetylthiocholine iodide as substrate incubated for 5 mins followed by substrate addition and measured after 2 mins by Ellman's method
Acetylcholinesterase, sequence (O42275 whole entry): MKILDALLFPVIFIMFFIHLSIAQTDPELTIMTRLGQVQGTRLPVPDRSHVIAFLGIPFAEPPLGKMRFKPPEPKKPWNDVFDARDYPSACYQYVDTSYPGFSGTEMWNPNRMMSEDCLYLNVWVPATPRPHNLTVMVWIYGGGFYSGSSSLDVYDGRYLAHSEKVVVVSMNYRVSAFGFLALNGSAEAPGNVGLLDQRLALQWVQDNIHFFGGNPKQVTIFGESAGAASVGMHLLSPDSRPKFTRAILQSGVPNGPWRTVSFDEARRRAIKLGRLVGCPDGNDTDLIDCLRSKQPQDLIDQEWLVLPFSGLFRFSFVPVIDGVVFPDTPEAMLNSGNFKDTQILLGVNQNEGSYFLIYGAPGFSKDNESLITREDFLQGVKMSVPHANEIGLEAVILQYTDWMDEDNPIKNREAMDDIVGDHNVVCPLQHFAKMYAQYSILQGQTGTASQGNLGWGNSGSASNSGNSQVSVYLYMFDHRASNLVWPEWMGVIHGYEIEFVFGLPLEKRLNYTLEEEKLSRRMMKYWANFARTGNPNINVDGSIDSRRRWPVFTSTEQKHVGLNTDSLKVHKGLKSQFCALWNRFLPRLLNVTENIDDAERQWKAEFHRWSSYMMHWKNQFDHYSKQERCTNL

[2] = molecular target: Cholinesterase (Equus caballus, UniProt P81908); experiment: Inhibition of equine serum BuChE using butyrylthiocholine iodide as substrate incubated for 5 mins followed by substrate addition and measured after 2 mins by Ellman's method; assay type: cell-free
Cholinesterase, sequence (P81908 whole entry): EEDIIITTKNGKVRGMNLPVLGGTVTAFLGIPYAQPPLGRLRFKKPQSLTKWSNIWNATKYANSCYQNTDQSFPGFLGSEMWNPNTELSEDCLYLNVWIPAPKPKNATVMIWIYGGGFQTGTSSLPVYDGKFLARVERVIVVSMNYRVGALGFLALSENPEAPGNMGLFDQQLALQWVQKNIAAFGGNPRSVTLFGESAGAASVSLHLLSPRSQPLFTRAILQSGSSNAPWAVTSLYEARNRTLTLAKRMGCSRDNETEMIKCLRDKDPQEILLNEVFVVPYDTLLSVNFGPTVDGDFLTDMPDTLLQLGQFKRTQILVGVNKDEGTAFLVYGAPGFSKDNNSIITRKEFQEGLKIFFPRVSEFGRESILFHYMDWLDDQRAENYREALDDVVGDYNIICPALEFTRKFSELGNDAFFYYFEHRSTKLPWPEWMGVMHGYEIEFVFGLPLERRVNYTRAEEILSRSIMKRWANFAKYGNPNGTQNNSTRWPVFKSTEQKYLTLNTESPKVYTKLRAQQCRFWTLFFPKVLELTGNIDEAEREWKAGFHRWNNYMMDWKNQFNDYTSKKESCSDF

[3] = organism: Homo sapiens; experiment: Inhibition of amyloid beta (1 to 42 ) (unknown origin) self aggregation at 25 uM after 48 hrs by thioflavin-T fluorescence method relative to control
[4] = test system: SH-SY5Y; experiment: Neuroprotective activity against amyloid beta (1 to 42)-induced loss of adherence in human SH-SY5Y cells at 20 uM incubated for 24 hrs in presence of amyloid beta (1 to 42) by phase-contrast microscopic analysis; assay type: functional, cell-based
[5] = test system: SH-SY5Y; experiment: Neuroprotective activity against amyloid beta (1 to 42)-induced shrink on cell body in human SH-SY5Y cells at 20 uM incubated for 24 hrs in presence of amyloid beta (1 to 42) by phase-contrast microscopic analysis; assay type: functional, cell-based
[6] = test system: SH-SY5Y; experiment: Cytotoxicity against human SH-SY5Y cells assessed as reduction in cell viability at 50 uM incubated for 48 hrs by MTT assay; assay type: cell-based
[7] = test system: SH-SY5Y; experiment: Neuroprotective activity against amyloid beta (1 to 42)-induced fade synapses in human SH-SY5Y cells at 20 uM incubated for 24 hrs in presence of amyloid beta (1 to 42) by phase-contrast microscopic analysis; assay type: functional, cell-based
[8] = test system: SH-SY5Y; experiment: Cytotoxicity against human SH-SY5Y cells assessed as reduction in cell viability at 1 uM incubated for 48 hrs by MTT assay; assay type: cell-based
[9] = test system: SH-SY5Y; experiment: Inhibition of H2O2-induced cell death in human SH-SY5Y cells at 20 uM incubated for 24 hrs by microscopic analysis; assay type: functional, cell-based
[10] = test system: SH-SY5Y; experiment: Cytotoxicity against human SH-SY5Y cells assessed as reduction in cell viability at 75 uM incubated for 48 hrs by MTT assay; assay type: cell-based
[11] = test system: SH-SY5Y; experiment: Inhibition of H2O2-induced ROS accumulation in human SH-SY5Y cells at 10 to 20 uM incubated for 24 hrs by […] probe based fluorescence assay; assay type: functional, cell-based; conditions: dose 10-20 µM
[12] = test system: SH-SY5Y; experiment: Cytotoxicity against human SH-SY5Y cells assessed as reduction in cell viability at 25 uM incubated for 48 hrs by MTT assay; assay type: cell-based
[13] = test system: SH-SY5Y; experiment: Neuroprotective activity against amyloid beta (1 to 42)-induced neurotoxicity in human SH-SY5Y cells at 5 to 20 uM incubated for 48 hrs in presence of amyloid beta (1 to 42) by MTT assay; assay type: functional, cell-based; conditions: dose 5-20 µM
[14] = organism: Homo sapiens; experiment: Inhibition of amyloid beta (1 to 42 ) (unknown origin) self aggregation at 25 uM after 48 hrs by TEM analysis
[15] = test system: SH-SY5Y; experiment: Neuroprotective activity against amyloid beta (1 to 42)-induced cell floating in human SH-SY5Y cells at 20 uM incubated for 24 hrs in presence of amyloid beta (1 to 42) by phase-contrast microscopic analysis; assay type: functional, cell-based
[16] = test system: SH-SY5Y; experiment: Cytotoxicity against human SH-SY5Y cells assessed as reduction in cell viability at 10 uM incubated for 48 hrs by MTT assay; assay type: cell-based
[17] = test system: SH-SY5Y; experiment: Inhibition of H2O2-induced morphological changes in human SH-SY5Y cells at 20 uM incubated for 24 hrs by microscopic analysis; assay type: functional, cell-based
[18] = test system: SH-SY5Y; experiment: Neuroprotective activity against amyloid beta (1 to 42)-induced cell fragmentation in human SH-SY5Y cells at 20 uM incubated for 24 hrs in presence of amyloid beta (1 to 42) by phase-contrast microscopic analysis; assay type: functional, cell-based
[19] = test system: SH-SY5Y; experiment: Cytotoxicity against human SH-SY5Y cells assessed as reduction in cell viability at 100 uM incubated for 48 hrs by MTT assay; assay type: cell-based
[20] = test system: SH-SY5Y; experiment: Cytotoxicity against human SH-SY5Y cells assessed as reduction in cell viability at 5 uM incubated for 48 hrs by MTT assay; assay type: cell-based
[21] = molecular target: Acetylcholinesterase (Electrophorus electricus) (UniProt O42275); experiment: Mixed inhibition of electric eel AchE using acetylthiocholine iodide as substrate incubated for 5 mins followed by substrate addition and measured after 2 mins by Ellman's method based Lineweaver-Burk plot analysis; conditions: time 7.0 min
Acetylcholinesterase (Electrophorus electricus), sequence (O42275 24-633 limits assumed): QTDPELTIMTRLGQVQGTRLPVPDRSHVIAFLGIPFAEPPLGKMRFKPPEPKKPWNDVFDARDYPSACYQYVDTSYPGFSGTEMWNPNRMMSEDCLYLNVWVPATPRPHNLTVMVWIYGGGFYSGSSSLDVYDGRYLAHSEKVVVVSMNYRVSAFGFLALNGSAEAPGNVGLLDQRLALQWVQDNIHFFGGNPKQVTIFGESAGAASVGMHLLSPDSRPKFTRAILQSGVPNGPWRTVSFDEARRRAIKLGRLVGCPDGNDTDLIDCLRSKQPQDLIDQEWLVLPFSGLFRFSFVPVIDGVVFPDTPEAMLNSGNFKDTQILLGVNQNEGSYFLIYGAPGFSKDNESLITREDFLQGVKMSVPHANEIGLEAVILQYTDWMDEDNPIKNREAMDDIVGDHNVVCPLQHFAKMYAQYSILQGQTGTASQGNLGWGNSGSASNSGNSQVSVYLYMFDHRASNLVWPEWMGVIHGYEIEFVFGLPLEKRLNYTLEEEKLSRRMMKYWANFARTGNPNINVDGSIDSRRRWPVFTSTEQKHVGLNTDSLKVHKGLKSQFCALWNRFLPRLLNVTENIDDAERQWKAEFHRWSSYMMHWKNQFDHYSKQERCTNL

COc1ccc(Nc2nc(Nc3ccccc3F)nc(N3CCN(c4ncccc4C#N)CC3)n2)cc1
IC50 [1]: 1.41 µM
IC50 [2]: 4.13 µM
inhibition [3]: 68.5%

N#Cc1cccnc1N1CCN(c2nc(Nc3cccc(C(F)(F)F)c3)nc(Nc3ccc(F)c(Cl)c3)n2)CC1
Activity [4]: Active
IC50 [1]: 0.059 µM
Activity [5]: Active
Activity [6]: 88.6%
Activity [7]: Active
IC50 [2]: 3.6 µM
Activity [8]: 97.1%
inhibition [9]: Active
Activity [10]: 84.3%
inhibition [11]: Active
Activity [12]: 92.8%
inhibition [3]: 83.7%
Activity [13]: Active
inhibition [14]: Active
Activity [15]: Active
Activity [16]: 95.7%
inhibition [17]: Active
Activity [18]: Active
Activity [19]: 80.3%
Activity [20]: 95.4%
inhibition [21]: Active

N#Cc1cccnc1N1CCN(c2nc(Nc3cccc(C(F)(F)F)c3)nc(NC3CC3)n2)CC1
IC50 [1]: 0.528 µM
IC50 [2]: 5.25 µM
inhibition [3]: 60.7%

Cc1ccc(Nc2nc(Nc3ccc(F)c(Cl)c3)nc(N3CCN(c4ncccc4C#N)CC3)n2)cc1
IC50 [1]: 1.7 µM
IC50 [2]: 5.36 µM
inhibition [3]: 63.5%

COc1ccc(Nc2nc(Nc3cccc(C(F)(F)F)c3)nc(N3CCN(c4ncccc4C#N)CC3)n2)cc1
Activity [4]: Active
IC50 [1]: 0.08 µM
Activity [5]: Active
Activity [6]: 89.6%
Activity [7]: Active
IC50 [2]: 2.02 µM
Activity [8]: 98.1%
inhibition [9]: Active
Activity [10]: 86.3%
inhibition [11]: Active
Activity [12]: 93.8%
inhibition [3]: 82.4%
Activity [13]: Dose-dependent effect
inhibition [14]: Active
Activity [15]: Active
Activity [16]: 94.7%
inhibition [17]: Active
Activity [18]: Active
Activity [19]: 83.3%
Activity [20]: 96.4%

N#Cc1cccnc1N1CCN(c2nc(Nc3cccc(C(F)(F)F)c3)nc(Nc3ccc(F)cc3F)n2)CC1
IC50 [1]: 0.072 µM
IC50 [2]: 2.85 µM
inhibition [3]: 81.2%

Cc1ccc(Nc2nc(Nc3cccc(C(F)(F)F)c3)nc(N3CCN(c4ncccc4C#N)CC3)n2)cc1
IC50 [1]: 0.153 µM
IC50 [2]: 2.21 µM
inhibition [3]: 70.5%

N#Cc1cccnc1N1CCN(c2nc(Nc3ccc(F)cc3)nc(Nc3cccc(C(F)(F)F)c3)n2)CC1
IC50 [1]: 0.084 µM
IC50 [2]: 4.89 µM
inhibition [3]: 80.4%

COc1cc(/C=C/C(=O)CC(=O)/C=C/c2ccc(O)c(OC)c2)ccc1O
inhibition [3]: 55.3%
inhibition [14]: Active
